This is an account of results in patent US20040062815A1, “Bdellosomes” (priority 2000, published 2004).

The test system of data set [1] is trypanosomes. Put plainly: inhibition of the growth of trypanosomes by free daunomycin. It is filed as cell-based, Trypanosoma brucei brucei.
The format of data set [2] is physicochemical. From the text:
In addition, the simplicity of the synthesis of the bdellosomes resulting from the monomolecular structure of the particle is particularly noteworthy.

Consider `COc1cccc2c1C(=O)c1c(O)c3c(c(O)c1C2=O)C[C@@](O)(C(C)=O)C[C@@H]3O[C@H]1C[C@H](N)[C@H](O)[C@H](C)O1` [daunomycin], for which the “concentration in the medium causing inhibition of the growth of trypanosomes” value in data set [1] is given as ≥ 10^−7 mol.
Take “polyvinyl(te/o-alanylpolylactide)ate[a=4000, b=100] [bdellosomes]”: the Stability entry in data set [2] is “high”.
